The text below walks through data of PubChem BioAssay (NCI).

Among the test systems are 786-0 renal; HCC-2998 colon; NCI-H460 lung; NCI-H522 lung; OVCAR-3 ovarian; OVCAR-8 ovarian; SK-MEL-5 melanoma; SW-620 colon; T-47D breast; UO-31 renal.
Experiment in all cases: NCI tumour cell line growth inhibition, 48 h

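Method: 48-hour compound exposure of cells in 96-well plates, five concentrations, linear interpolation of endpoints. The concentration for 50% growth inhibition is given as GI50. The concentration for full growth arrest is given as TGI.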

Take `Cn1c(=O)c(Cc2ccc(F)cc2F)cc2cnc(NC3CCOCC3)nc21`: the GI50 in the assay on 786-0 renal, in the assay with HCC-2998 colon, in the assay with NCI-H460 lung, in the assay with NCI-H522 lung, with OVCAR-3 ovarian and in the assay with OVCAR-8 ovarian was > 25 µM throughout. In addition, the GI50 is 11.8 µM in the assay with SK-MEL-5 melanoma, > 25 µM in the assay on SW-620 colon, 9.47 µM in the assay on T-47D breast and 11.5 µM in the assay with UO-31 renal. Besides, the TGI in the assay on 786-0 renal, in the assay with HCC-2998 colon, in the assay with NCI-H460 lung, in the assay with NCI-H522 lung, in the assay on OVCAR-3 ovarian and in the assay with OVCAR-8 ovarian was > 25 µM in each case. The TGI in the assay on SK-MEL-5 melanoma, in the assay on SW-620 colon, with T-47D breast and with UO-31 renal was > 25 µM throughout.
On to `O=C1c2cccc3cccc(c23)C(=O)N1CCCCOc1ccc(-c2nc3ccc(N4CCOCC4)cc3[nH]2)cc1`, for which the GI50 in the assay with 786-0 renal was 1.28 µM; with HCC-2998 colon it was 5.25 µM; in the assay on NCI-H460 lung, 3.42 µM; with NCI-H522 lung it was 15.1 µM; in the assay on OVCAR-3 ovarian, 5.05 µM; in the assay with OVCAR-8 ovarian, 6.21 µM. Also, the GI50 in the assay with SK-MEL-5 melanoma was 1.6 µM; with SW-620 colon, 3.78 µM; in the assay with T-47D breast, 3.08 µM; in the assay with UO-31 renal it was 10.8 µM. Also, the TGI is 2.68 µM in the assay with 786-0 renal; > 47.8 µM in the assay with HCC-2998 colon; 16.1 µM in the assay on NCI-H460 lung; 41.2 µM with NCI-H522 lung; 11.2 µM in the assay on OVCAR-3 ovarian; > 75.1 µM with OVCAR-8 ovarian. Moreover, the TGI in the assay on SK-MEL-5 melanoma is 3.06 µM; in the assay with SW-620 colon, 12.3 µM; in the assay with T-47D breast it was 15.9 µM; in the assay on UO-31 renal it was > 35.2 µM.
As to `COc1ccc(-n2c(N)c(C(=O)NCCN3CCOCC3)c3nc4ccccc4nc32)cc1OC`, the GI50 is 2.02 µM in the assay with 786-0 renal; 94.3 µM in the assay with HCC-2998 colon; 3.28 µM in the assay on NCI-H460 lung; 8.07 µM with NCI-H522 lung; 20.3 µM with OVCAR-3 ovarian; 6.94 µM in the assay with OVCAR-8 ovarian. The GI50 with SK-MEL-5 melanoma is 3.22 µM; in the assay on SW-620 colon, 4.07 µM; in the assay on T-47D breast, 25 µM; with UO-31 renal, 3.53 µM. For the same compound, the TGI in the assay on 786-0 renal was 79.2 µM; with HCC-2998 colon, > 100 µM; in the assay with NCI-H460 lung, > 100 µM; in the assay on NCI-H522 lung, > 100 µM; in the assay on OVCAR-3 ovarian, > 100 µM; in the assay with OVCAR-8 ovarian, > 100 µM. In addition, the TGI in the assay with SK-MEL-5 melanoma was > 100 µM; with SW-620 colon, > 100 µM; in the assay on T-47D breast, > 100 µM; with UO-31 renal, 62.1 µM.
As for `CNCCNc1nc2ccccc2c2c(=O)c3cccc(OC)c3sc12`, the GI50 is 1.76 µM in the assay with 786-0 renal; 1.55 µM in the assay with HCC-2998 colon; 1.23 µM with NCI-H460 lung; 1.34 µM in the assay on NCI-H522 lung; 1.52 µM in the assay with OVCAR-3 ovarian; 1.15 µM in the assay with OVCAR-8 ovarian. Also, the GI50 with SK-MEL-5 melanoma is 1.65 µM; in the assay on SW-620 colon, 0.575 µM; in the assay on T-47D breast it was 1.57 µM; with UO-31 renal, 0.38 µM. Besides, the TGI was 3.35 µM with 786-0 renal; 3.18 µM in the assay with HCC-2998 colon; 2.72 µM in the assay on NCI-H460 lung; 3.1 µM with NCI-H522 lung; 3.02 µM in the assay with OVCAR-3 ovarian; 2.8 µM with OVCAR-8 ovarian. Further, the TGI in the assay with SK-MEL-5 melanoma came out at 3.04 µM; with SW-620 colon it was 2.11 µM; in the assay on T-47D breast it was 3.56 µM; in the assay on UO-31 renal, 2.08 µM.
Regarding `O=C1c2cc3c(cc2-c2c1c1ccc([N+](=O)[O-])cc1c(=O)n2CCCCl)OCO3`, the GI50 is 0.198 µM in the assay with 786-0 renal; 0.489 µM with HCC-2998 colon; 0.0277 µM in the assay with NCI-H460 lung; > 85.9 µM in the assay on NCI-H522 lung; 4.8 µM with OVCAR-3 ovarian; > 100 µM in the assay on OVCAR-8 ovarian. Moreover, the GI50 was 0.246 µM with SK-MEL-5 melanoma, 0.263 µM in the assay on SW-620 colon and 0.307 µM in the assay on UO-31 renal. The TGI in the assay on 786-0 renal is > 100 µM; with HCC-2998 colon it was 5.43 µM; in the assay on NCI-H460 lung it was > 100 µM; with NCI-H522 lung, > 100 µM; in the assay with OVCAR-3 ovarian it was > 100 µM; with OVCAR-8 ovarian, > 100 µM. In addition, the TGI in the assay on SK-MEL-5 melanoma was 2.59 µM; in the assay with SW-620 colon, > 100 µM; in the assay with T-47D breast it was > 100 µM; in the assay on UO-31 renal, > 100 µM.
`O=C1NC(=NCCc2ccccc2Cl)S/C1=C\c1ccc2ncccc2c1`: the GI50 with 786-0 renal was 7.66 µM; in the assay on HCC-2998 colon it was 6.33 µM; in the assay with NCI-H460 lung it was 6.34 µM; with NCI-H522 lung, 4.13 µM; with OVCAR-3 ovarian, 5.31 µM; with OVCAR-8 ovarian, 8.16 µM. Also, the GI50 in the assay on SK-MEL-5 melanoma was 6.92 µM; in the assay with SW-620 colon, 1.09 µM; in the assay with T-47D breast, 7.34 µM; in the assay with UO-31 renal, 5.13 µM. Also, the TGI in the assay on 786-0 renal is > 25 µM; in the assay with HCC-2998 colon it was > 25 µM; with NCI-H460 lung, > 25 µM; in the assay with NCI-H522 lung, 12.3 µM; in the assay with OVCAR-3 ovarian, 19.8 µM; in the assay on OVCAR-8 ovarian, > 25 µM. Also, the TGI is 24.6 µM in the assay with SK-MEL-5 melanoma, > 25 µM in the assay on SW-620 colon, > 25 µM with T-47D breast and > 25 µM in the assay with UO-31 renal.
Turning to `C=C1C(=O)O[C@H]2[C@H]1CC/C(COC(=O)CCC(=O)OC/C1=C/CC[C@@]3(C)O[C@H]3[C@H]3OC(=O)C(=C)[C@@H]3CC1)=C\CC[C@@]1(C)O[C@@H]21`, the GI50 in the assay with 786-0 renal is 1.46 µM; with HCC-2998 colon, 2.13 µM; with NCI-H460 lung, 4.48 µM; in the assay with NCI-H522 lung it was 1.43 µM; in the assay on OVCAR-3 ovarian, 0.599 µM; in the assay on OVCAR-8 ovarian, 2.75 µM. Further, the GI50 is 2.05 µM in the assay on SK-MEL-5 melanoma, 0.602 µM with SW-620 colon, 1.06 µM with T-47D breast and 1.02 µM in the assay on UO-31 renal. Further, the TGI in the assay with 786-0 renal was determined as 3.12 µM; with HCC-2998 colon it was 4.4 µM; in the assay with NCI-H460 lung, 17.2 µM; in the assay on NCI-H522 lung, 3.07 µM; with OVCAR-3 ovarian it was 1.91 µM; in the assay on OVCAR-8 ovarian, 10.4 µM. For the same compound, the TGI with SK-MEL-5 melanoma amounted to 5.27 µM; with SW-620 colon, 2.1 µM; with T-47D breast, 3.67 µM; in the assay with UO-31 renal, 2.39 µM.
